From patent US20150105252A1, “SUBSTITUTED PYRAZOLES AS HERBICIDES” (E I DU PONT DE NEMOURS AND COMPANY, priority 2013, published 2015)

What was measured:
wheat [1] = assay: Test C preemergence; type: in vivo, Triticum aestivum
Method in brief: (§1)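 Scores of 0 (no effect) to 100 (complete control) were assigned by eye after 13–15 days, comparing treated pots with controls. Soil-applied (preemergence) treatments went onto seeds in loam and sand; foliar (postemergence) treatments onto 1- to 4-leaf plants in peat medium.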

sedge, umbrella = assay: Test B flood; type: in vivo, Cyperus difformis; conditions: 250 g ai/ha, visual rating on 0 to 100 scale (0 no effect, 100 complete control), 13 to 15 days
Method in brief: (§2)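 Visual ratings (0 = no effect, 100 = complete control) versus untreated controls were taken 13–15 days after treatment of greenhouse plants. Treatment was added to paddy water held at 3 cm depth on 2-leaf-stage seedlings.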

kochia = assay: Test C postemergence; type: in vivo, Kochia scoparia; conditions: for Plant response rating (scale of 0 to 100 where 0 is no effect and 100 is complete control), Kochia: Postemergence, 31 g ai/ha, visually evaluated after 13 to 15 days; for Kochia plant response rating / Plant response rating, Kochia: postemergence; for Kochia plant response rating: 62 g ai/ha, scale 0 to 100
Method in brief: as §1

corn = assay: Test C preemergence; type: in vivo, Zea mays
Method in brief: as §1

ragweed = assay: Test C preemergence; type: in vivo, Ambrosia elation
Method in brief: as §1

galium = assay: Test C preemergence; type: in vivo, Galium aparine
Method in brief: as §1

lambsquarters [2] = assay: Test C postemergence; type: in vivo, Chenopodium album; conditions: for Plant response rating (scale of 0 to 100 where 0 is no effect and 100 is complete control), Lambsquarters: Postemergence, 31 g ai/ha, visually evaluated after 13 to 15 days; for Lambsquarters plant response rating / Plant response rating, Lambsquarters: postemergence; for Lambsquarters plant response rating: 62 g ai/ha, scale 0 to 100
Method in brief: as §1

ryegrass, Italian = assay: Test C postemergence; type: in vivo, Lolium multiflorum
Method in brief: as §1

pigweed = assay: Test A preemergence; type: in vivo, Amaranthus retroflexus; conditions: preemergence
Method in brief: (§3)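 Visual injury rating, 0–100 (0 no effect, 100 complete control), vs untreated controls ~10 days after treatment in greenhouse. Pre: directed soil spray on seeded loam/sand. Post: 2–10 cm plants, 1–2 leaf stage. Formulation: non-phytotoxic solvent mix + surfactant.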

wheat [3] = assay: Test A postemergence; type: in vivo, Triticum aestivum
Method in brief: as §3

lambsquarters [4] = assay: Test C preemergence; type: in vivo, Chenopodium album
Method in brief: as §1

rice = assay: Test B flood; type: in vivo, Oryza sativa; conditions: 250 g ai/ha, visual rating on 0 to 100 scale (0 no effect, 100 complete control), 13 to 15 days
Method in brief: as §2

crabgrass, large = assay: Test C postemergence; type: in vivo, Digitaria sanguinalis; conditions: for Plant response rating (scale of 0 to 100 where 0 is no effect and 100 is complete control), Crabgrass, Large: Postemergence, 31 g ai/ha, visually evaluated after 13 to 15 days; for Crabgrass, Large plant response rating / Plant response rating, Crabgrass, Large: postemergence; for Crabgrass, Large plant response rating: 62 g ai/ha, scale 0 to 100
Method in brief: as §1

[5] = preemergence, 31 g ai/ha, visual rating, scale 0 to 100 (0 no effect, 100 complete control), 13 to 15 days
[6] = preemergence, 62 g ai/ha, scale 0 to 100 (0 no effect, 100 complete control), 13 to 15 days
[7] = preemergence, 125 g ai/ha, 13 to 15 days, scale 0 to 100, 0 = no effect, 100 = complete control
[8] = preemergence, 250 g ai/ha, scale 0 to 100, 0 is no effect, 100 is complete control
[9] = 250 g ai/ha, scale 0 to 100 (0 no effect, 100 complete control)
[10] = 125 g ai/ha, scale 0 to 100, 0 no effect, 100 complete control
[11] = postemergence, 250 g ai/ha, scale 0 to 100 (0 no effect, 100 complete control)
[12] = postemergence, 125 g ai/ha, scale 0 to 100, 0 no effect, 100 complete control
[13] = Postemergence, 500 g ai/ha, 0 to 100 scale (0 no effect, 100 complete control)
[14] = preemergence, 125 g ai/ha, scale 0 to 100, 0 is no effect, 100 is complete control

CCc1cc(C(=O)NCC(F)(F)F)nn1Cc1ccnc(SC(F)(F)F)c1 [Compound 214]
Wheat plant response rating (wheat [1]; [5]): 0
Wheat plant response rating (wheat [1]; [6]): 0
Plant response rating, Wheat (wheat [1]; [7]): 10
Wheat plant response rating (wheat [1]; [8]): 40
Plant response rating, Sedge, Umbrella (sedge, umbrella): 95
Plant response rating (scale of 0 to 100 where 0 is no effect and 100 is complete control), Kochia (kochia): 85
Kochia plant response rating (kochia): 90
Plant response rating, Kochia (kochia; [9]): 90
Plant response rating, Kochia (kochia; [10]): 90
Corn plant response rating (corn; [5]): 0
Corn plant response rating (corn; [6]): 0
Plant response rating, Corn (corn; [7]): 35
Corn plant response rating (corn; [8]): 40
Ragweed plant response rating (ragweed; [5]): 85
Ragweed plant response rating (ragweed; [6]): 98
Plant response rating, Ragweed (ragweed; [7]): 100
Ragweed plant response rating (ragweed; [8]): 98
Galium plant response rating (galium; [5]): 80
Galium plant response rating (galium; [6]): 80
Plant response rating, Galium (galium; [7]): 90
Galium plant response rating (galium; [8]): 80
Plant response rating (scale of 0 to 100 where 0 is no effect and 100 is complete control), Lambsquarters (lambsquarters [2]): 35
Lambsquarters plant response rating (lambsquarters [2]): 50
Plant response rating, Lambsquarters (lambsquarters [2]; [9]): 80
Plant response rating, Lambsquarters (lambsquarters [2]; [10]): 75
Plant response rating, Ryegrass, Italian (ryegrass, Italian; [11]): 15
Plant response rating, Ryegrass, Italian (ryegrass, Italian; [12]): 5
Pigweed plant response rating (0 to 100 scale) (pigweed; 125 g ai/ha, visual injury approx. 10 days after treatment): 100
Wheat plant response rating (wheat [3]; Postemergence, 125 g ai/ha, 0 to 100 scale, 0 no effect, 100 complete control): 80
Wheat plant response rating (wheat [3]; [13]): 90
Lambsquarters plant response rating (lambsquarters [4]; [5]): 100
Lambsquarters plant response rating (lambsquarters [4]; [6]): 100
Plant response rating, Lambsquarters (lambsquarters [4]; [7]): 100
Lambsquarters plant response rating (lambsquarters [4]; [8]): 100
Plant response rating, Rice (rice): 60
Plant response rating (scale of 0 to 100 where 0 is no effect and 100 is complete control), Crabgrass, Large (crabgrass, large): 5
Crabgrass, Large plant response rating (crabgrass, large): 5
Plant response rating, Crabgrass, Large (crabgrass, large; [9]): 55
Plant response rating, Crabgrass, Large (crabgrass, large; [10]): 20

CCc1cc(C(=O)NOC(C)C)nn1Cc1ccnc(OC(F)F)c1 [Compound 126]
Plant response rating (scale of 0 to 100), Wheat (wheat [1]; Preemergence, 250 g ai/ha): 90
Wheat plant response rating (wheat [1]; [5]): 45
Wheat plant response rating (wheat [1]; [6]): 80
Wheat plant response rating (wheat [1]; [14]): 90
Plant response rating, Sedge, Umbrella (sedge, umbrella): 95
Plant response rating (scale of 0 to 100 where 0 is no effect and 100 is complete control), Kochia (kochia): 55
Kochia plant response rating (kochia): 50
Plant response rating, Kochia (kochia; [9]): 65
Plant response rating, Kochia (kochia; [10]): 65
Plant response rating (scale of 0 to 100), Corn (corn; Preemergence, 250 g ai/ha): 98
Corn plant response rating (corn; [5]): 25
Corn plant response rating (corn; [6]): 65
Corn plant response rating (corn; [14]): 90
Plant response rating (scale of 0 to 100), Ragweed (ragweed; Preemergence, 250 g ai/ha): 90
Ragweed plant response rating (ragweed; [5]): 70
Ragweed plant response rating (ragweed; [6]): 100
Ragweed plant response rating (ragweed; [14]): 100
Plant response rating (scale of 0 to 100), Galium (galium; Preemergence, 250 g ai/ha): 100
Galium plant response rating (galium; [5]): 85
Galium plant response rating (galium; [6]): 98
Galium plant response rating (galium; [14]): 100
Plant response rating (scale of 0 to 100 where 0 is no effect and 100 is complete control), Lambsquarters (lambsquarters [2]): 35
Lambsquarters plant response rating (lambsquarters [2]): 70
Plant response rating, Lambsquarters (lambsquarters [2]; [9]): 90
Plant response rating, Lambsquarters (lambsquarters [2]; [10]): 80
Plant response rating (scale of 0 to 100 where 0 is no effect and 100 is complete control), Ryegrass, Italian (ryegrass, Italian; Postemergence, 31 g ai/ha, visually evaluated after 13 to 15 days): 5
Ryegrass, Italian plant response rating (ryegrass, Italian; postemergence, 62 g ai/ha, scale 0 to 100): 5
Plant response rating, Ryegrass, Italian (ryegrass, Italian; [11]): 15
Plant response rating, Ryegrass, Italian (ryegrass, Italian; [12]): 10
Pigweed plant response rating (pigweed; 125 g ai/ha, visual injury, 0 to 100 scale, approx. 10 days): 100
Pigweed plant response rating (pigweed; 500 g ai/ha, visual injury after approx. 10 days, 0 to 100 scale (0 no effect, 100 complete control)): 100
Wheat plant response rating (wheat [3]; [13]): 90
Wheat plant response rating (wheat [3]; postemergence, 125 g ai/ha, about 10 days, visual rating on 0 to 100 scale (0 no effect, 100 complete control)): 90
Plant response rating (scale of 0 to 100), Lambsquarters (lambsquarters [4]; Preemergence, 250 g ai/ha): 100
Lambsquarters plant response rating (lambsquarters [4]; [5]): 85
Lambsquarters plant response rating (lambsquarters [4]; [6]): 98
Lambsquarters plant response rating (lambsquarters [4]; [14]): 100
Plant response rating, Rice (rice): 20
Plant response rating (scale of 0 to 100 where 0 is no effect and 100 is complete control), Crabgrass, Large (crabgrass, large): 5
Crabgrass, Large plant response rating (crabgrass, large): 10
Plant response rating, Crabgrass, Large (crabgrass, large; [9]): 60
Plant response rating, Crabgrass, Large (crabgrass, large; [10]): 15
